Marks after values point to notes of the source that are not given here.
Tests used:
[1] = system: Puccinia recondita f. sp. tritici; assay: Test I: wheat leaf rust, preventive spray on wheat seedlings, visual disease rating; settings: wheat leaf rust, preventive spray; for Test I rating (% disease control): 100 = 100% disease control, 0 = no control
Botrytis cinerea = assay: Test B: tomato Botrytis, preventive spray on tomato seedlings, visual disease rating; settings: tomato Botrytis, preventive spray; for Test B rating (% disease control): 100 = 100% disease control, 0 = no control
[2] = system: Erysiphe graminis f sp. tritici; assay: Test J: wheat powdery mildew, preventive spray on wheat seedlings, visual disease rating; settings: wheat powdery mildew, preventive spray; for Test J rating (% disease control): 100 = 100% disease control, 0 = no control
Septoria nodorum = assay: Test F: Septoria glume blotch, preventive spray on wheat seedlings, visual disease rating; settings: preventive spray; for Test F rating (% disease control): Septoria glume blotch on wheat, 100 = 100% disease control, 0 = no control
Description: (§1) General protocol for preparing test suspensions for Tests A-J: the test compounds were first dissolved in acetone in an amount equal to 3% of the final volume and then suspended at the desired concentration (in ppm) in acetone and purified water (50/50 mix by volume) containing 250 ppm of the surfactant Trem® 014 (polyhydric alcohol esters). The resulting test suspensions were then used in Tests A-J. Spraying a 200 ppm test suspension to the point of run-off on the test plants was the equivalent of a rate of 500 g/ha. Unless otherwise indicated, the rating values indicate a 200 ppm test suspension was used. (An asterisk “*” next to the rating value indicates a 40 ppm test suspension was used.)
The test suspension was sprayed to the point of run-off on wheat seedlings. The following day the seedlings were inoculated with a spore suspension of Septoria nodorum (the causal agent of Septoria glume blotch) and incubated in a saturated atmosphere at 24° C. for 48 h, and then moved to a growth chamber at 20° C. for 6 days, after which time visual disease ratings were made.

Alternaria solani = assay: Test C: tomato early blight, preventive spray on tomato seedlings, visual disease rating; settings: tomato early blight, preventive spray; for Test C rating (% disease control): 100 = 100% disease control, 0 = no control
[3] = system: Puccinia recondita f. sp. tritici; assay: Test H: wheat leaf rust, curative spray on inoculated wheat seedlings, visual disease rating; settings: wheat leaf rust, curative spray; for Test H rating (% disease control): 100 = 100% disease control, 0 = no control
Description: as §1
Wheat seedlings were inoculated with a spore suspension of Puccinia recondita f. sp. tritici (the causal agent of wheat leaf rust) and incubated in a saturated atmosphere at 20° C. for 24 h, and then moved to a growth chamber at 20° C. for 2 days. At the end of this time the test suspension was sprayed to the point of run-off, and then the seedlings were moved to a growth chamber at 20° C. for 6 days after which time visual disease ratings were made.

Septoria tritici = assay: Test G: wheat leaf blotch, preventive spray on wheat seedlings, visual disease rating; settings: wheat leaf blotch, preventive spray; for Test G rating (% disease control): 100 = 100% disease control, 0 = no control
[4] = rating marked with asterisk (different test condition, key not given)

Row | Compound | Test I rating (% disease control) [1] | Test B rating (% disease control) (Botrytis cinerea) | Test J rating (% disease control) [2] | Test F rating (% disease control) (Septoria nodorum) | Test C rating (% disease control) (Alternaria solani) | Test H rating (% disease control) [3] | Test G rating (% disease control) (Septoria tritici) | Test I rating (% disease control), value marked * [1, 4] | Test B rating (% disease control), value marked * (Botrytis cinerea; [4]) | Test J rating (% disease control), value marked * [2, 4] | Test F rating (% disease control), value marked * (Septoria nodorum; Septoria glume blotch, rating marked with asterisk (different test condition, key not given)) | Test C rating (% disease control), value marked * (Alternaria solani; [4]) | Test H rating (% disease control), value marked * [3, 4] | Test G rating (% disease control), value marked * (Septoria tritici; [4])
1 | Cc1nn(C)c(Oc2ccc(Cl)cc2Cl)c1-c1c(F)cc(F)cc1F [compound 38] | 99% | 99% | 99% | 0% | 9% | 0% | 97% | – | – | – | – | – | – | –
2 | Cc1nn(C)c(Oc2ccc(Cl)cn2)c1-c1c(F)cc(F)cc1F [compound 39] | 99% | 100% | 99% | 0% | 99% | 99% | 99% | – | – | – | – | – | – | –
3 | COc1cc(F)c(-c2c(C)nn(C)c2Oc2ccc(Cl)cc2Cl)c(F)c1 [compound 40] | 99% | 99% | 99% | 0% | 0% | 92% | 94% | – | – | – | – | – | – | –
4 | COc1cc(F)c(Nc2c(-c3ccc(F)cc3F)c(C)nn2C)c(F)c1 [compound 42] | 94% | 100% | 82% | 0% | 0% | 0% | 93% | – | – | – | – | – | – | –
5 | Cc1nn(C)c(Oc2c(F)cc(C#N)cc2F)c1-c1cccc(F)c1 [compound 43] | 82% | 76% | 99% | 0% | 0% | 66% | 97% | – | – | – | – | – | – | –
6 | Cc1nn(C)c(Oc2c(F)cc(C#N)cc2F)c1-c1ccc(Cl)cc1 [compound 44] | 9% | 82% | 0% | 0% | 0% | 7% | 96% | – | – | – | – | – | – | –
7 | COc1ccc(-c2c(C)nn(C)c2Oc2c(F)cc(C#N)cc2F)c(F)c1 [compound 46] | 100% | 99% | 99% | 99% | 100% | 37% | 100% | – | – | – | – | – | – | –
8 | COc1cc(F)c(-c2c(C)nn(C)c2Oc2ccc(Cl)cn2)c(F)c1 [compound 47] | – | – | – | – | – | – | – | 96* % | 100* % | 99* % | 0* % | 87* % | 37* % | 99* %
9 | COc1cc(F)c(-c2c(C)nn(C)c2Nc2ccc(F)c(F)c2)c(F)c1 [compound 48] | 98% | 100% | 98% | 0% | 78% | 0% | 99% | – | – | – | – | – | – | –
10 | COc1cc(F)c(-c2c(C)nn(C)c2Nc2ccc(Cl)c(F)c2)c(F)c1 [compound 49] | 89% | 100% | 79% | 35% | 17% | 0% | 99% | – | – | – | – | – | – | –
11 | COc1cc(F)c(-c2c(C)nn(C)c2Nc2ccc(C)cc2)c(F)c1 [compound 50] | 98% | 99% | 99% | 0% | 57% | 0% | 100% | – | – | – | – | – | – | –
12 | COc1cc(F)c(-c2c(C)nn(C)c2Nc2ccc(OC)cc2OC)c(F)c1 [compound 51] | 89% | 100% | 78% | 0% | 0% | 0% | 100% | – | – | – | – | – | – | –
13 | Cc1ccc(-c2c(C)nn(C)c2Oc2ccc([N+](=O)[O-])cc2Cl)cc1 [compound 52] | 92% | 54% | 64% | 0% | 0% | 0% | 97% | – | – | – | – | – | – | –
14 | Cc1nn(Cc2ccccc2)c(Oc2c(F)cc([N+](=O)[O-])cc2F)c1-c1c(F)cc(F)cc1F [compound 53] | 0% | 0% | 0% | 0% | 0% | 0% | 0% | – | – | – | – | – | – | –
15 | COc1ccc(Oc2c(-c3ccc(C)cc3)c(C)nn2C)c(Cl)c1 [compound 55] | 41% | 6% | 73% | 0% | 0% | 0% | 98% | – | – | – | – | – | – | –
16 | COc1ccc(Nc2c(-c3ccc(Cl)cc3)c(C)nn2C)cc1 [compound 56] | 28% | 43% | 64% | 0% | 0% | 0% | 99% | – | – | – | – | – | – | –
17 | COc1ccc(Nc2c(-c3ccc(Cl)cc3Cl)c(C)nn2C)c(OC)c1 [compound 57] | 85% | 98% | 0% | 0% | 0% | 85% | 94% | – | – | – | – | – | – | –
18 | COc1cc(F)c(-c2c(C)nn(C)c2Nc2c(Cl)cc(OC)cc2OC)c(F)c1 [compound 59] | 68% | 94% | 0% | 0% | 0% | 0% | 88% | – | – | – | – | – | – | –
19 | COc1ccc(Nc2c(-c3ccc(Cl)cc3)c(C)nn2C)c(Cl)c1 [compound 60] | 79% | 75% | 0% | 0% | 0% | 59% | 97% | – | – | – | – | – | – | –

Reference: patent US10448639B2, “Fungicidal pyrazoles” (FMC CORPORATION, priority 2009, dated 2019)
